Measured values from PMC10754118, “Lipophilic Nucleoside Triphosphate Prodrugs of Anti‐HIV Active Nucleoside Analogs as Potential Antiviral Compounds” (Advanced Science, 2023).
Like-named read-outs stand apart in the source and are kept apart here.

Columns and labels:
[1] = Chemical hydrolysis in phosphate buffer saline (PBS, pH 7.3); format: physicochemical; conditions: PBS pH 7.3, 37 °C, read-out: PBS pH 7.3 t 1/2 (converted)
Description: (§1) Part 4. Chemical Hydrolysis of TriPPPro-compounds 10 and 20.
Second prepare 1.9 mM hydrolysis […]
(§2) Then, aliquots of 50 µL human

in vitro [2] = conditions: human
Description: The hydrolysis properties of TriPPPro‐compounds 10 and 20 were evaluated in phosphate buffer saline (PBS, pH 7.3), pig liver esterase (PLE) or CEM/0 cell extracts. In both cases, hydrolysis products were analyzed by means of analytical RP18‐HPLC and the hydrolysis half‐lives (Table 1 , t1/2 ) of TriPPPro‐compounds 10 and 20 were calculated after complete consumption of the starting materials.
The hydrolysis of TriPPPro‐compounds 10 and 20 was carried out with CEM/0 cell extracts as well. […]
Part 6. Enzyme-Catalyzed Hydrolysis of TriPPPro-compounds 10 and 20 in CEM Cell […]
First prepare 3.0 mM hydrolysis solutions of Tri PPPro-compounds 10 and 20 in DMSO and H2O: 21 µL stock solution (50 mM in DMSO) and 154 µL DMSO, and 175 µL Milli-Q water. Three-twelve different samples (20 µL 3.0 mM hydrolysis solutions) were prepared in 2 mL Eppendorf® vials. Then, aliquots of 50 µL human CEM cell extracts were added to these samples and the reaction was started. The samples were incubated at 37 °C in a thermomixer for different time periods. The reaction was stopped by addition of 150 µL MeOH and kept on ice for 5 min. After centrifugation at 14,000 rpm for 12 min, the supernatants were filtered (Chromafil RC-20/15 MS, 0.2 μm) and stored in liquid nitrogen. When testing, aliquots of 60 µL (injection volume) were analyzed by analytical HPLC (HPLC Method). The calculation of t1/2 was obtained using Origin again.
(§3) Part 7. Hydrolysis of TriPPPro-compounds 10 and 20 in human plasma.
µL 3.0 mM hydrolysis solutions) were prepared in 2 mL Eppendorf® vials.

pig liver esterase (PLE) = assay: Hydrolysis with pig liver esterase (PLE); format: in vitro ADME; conditions: pig liver esterase (PLE) in PBS, PLE in PBS pH 7.3, 37 °C, read-out: PLE t 1/2 (converted)
Description: Next, TriPPPro‐compounds 10 and 20 were exposed to PLE in PBS (pH 7.3) and the half‐lives of TriPPPro‐compounds 10 and 20 are listed in Table 1. […] In contrast, the cleavage of the AB (C4) masking group in TriPPPro‐compounds 10by–hy and 10bz–hz was triggered by ester hydrolysis and yielded the corresponding γ‐alkylated nucleoside triphosphate derivatives 20 (Figure 3B,D) and 21 (Figures S17 and S18, Supporting Information), respectively. […] Moreover, a very small amount of NDPs was observed, probably due to a reaction involving a nucleophilic reaction at the γ‐phosphate or γ‐phosphonate moiety (pathways d and f, Scheme 5). […]
as §1
Second prepare 1.9 mM hydrolysis
Part 5. Hydrolysis of TriPPPro-compounds 10 and 20 with PLE .
Second, 125 µL DMSO and 833 µL
62.5 µL of PLE solution in PBS (100
mixture was stored in the freezer (- 30 °C).
by analytical HPLC (HPLC Method).
similar to that for the chemical hydrolysis studies. […]
as §2

in vitro [3] = conditions: human, plasma
Description: First prepare 50 mM solutions of TriPPPro-compounds 10 and 20 in DMSO. […]
First prepare 3.0 mM hydrolysis solutions of Tri PPPro-compounds 10 and 20 in DMSO and H2O: 21 µL stock solution (50 mM in DMSO) and 154 µL DMSO, and 175 µL Milli-Q water. Three-twelve different samples (20 […]
The calculation of t1/2 was obtained using Origin again.
as §3
µL 3.0 mM hydrolysis solutions) were prepared in 2 mL Eppendorf® vials. Then, aliquots of 50 µL human Plasma (Heparin or Citrate) were added to these samples and the reaction was started. The samples were […]
incubated at 37 °C in a thermomixer for different time periods. The reaction was stopped by addition of 150 µL MeOH and kept on ice for 5 min. After centrifugation at 14,000 rpm for 22 min, the supernatants were filtered (Chromafil RC-20/15 MS, 0.2 μm) and stored in liquid nitrogen. When testing, aliquots of 25 0r 30 µL (injection volume) were analyzed by analytical HPLC (HPLC Method). The calculation of t1/2 was obtained using Origin […]
Part 8. Preparation of cell extracts and human plasma. […]

HIV‐1 [HE] = assay: Anti-HIV activity, HIV-1 in wild-type CEM/0 cells; format: cell-based; conditions: for EC50: read-out: Antiviral activity CEM/0 HIV‐1 [HE] EC50
HIV‐2 [ROD] = assay: Anti-HIV activity, HIV-2 in wild-type CEM/0 cells; format: cell-based; conditions: for EC50: read-out: Antiviral activity CEM/0 HIV‐2 [ROD] EC50
Description: (§4) Part 9. Anti-HIV activity assay.
(§5) The produce was used as previously reported. 5 Inhibition of HIV-1(IIIB)- and HIV-2(ROD)-induced cytopathogenicity in wild-type CEM/0 and thymidine kinase-deficient CEM/TK– cell cultures was measured in […]
(§6) containing appropriate dilutions of the test compounds. After 4−5 days of incubation at 37 °C in a CO2-controlled humidified atmosphere, CEM giant (syncytium) cell formation was examined microscopically. The […]
(§7) giant cell formation by 50%.
(§8) Part 10. Primer-extension assays. […]

HIV‐2 [ROD)] = assay: Anti-HIV activity, HIV-2 in thymidine kinase-deficient CEM/TK^− cells; format: cell-based
Description: as §4, §5, §6, §7, §8

in vitro [4] = conditions: human, CEM/0 cells (wild-type CD4+ T-cells)
Description: (§9) All TriPPPro‐compounds 10 and 20, as well as their parent nucleosides and the corresponding NTPs, were evaluated for their antiviral activity (expressed as EC50 values) against HIV‐1 (wild‐type CEM/0 cells) and HIV‐2 (wild‐type CEM/0 cells and thymidine kinase‐deficient (CEM/TK^−) cells) with concomitant determination of cytotoxicity in the same cell line (Table 3 ).

CEM/0 = assay: in vitro; conditions: read-out: Toxicity CEM/0 CC50; 50% cytostatic concentration, CEM proliferation
Description: as §9

[5] = t 1/2 in human plasma (over heparin and citrate plasma)
[6] = Human immunodeficiency virus 1, CCRF-CEM, wild-type CEM/0 cells, mean ±SD n = 2–3
[7] = wild-type CEM/0 cells, vs parent nucleoside
[8] = Human immunodeficiency virus 2, CCRF-CEM, wild-type CEM/0 cells, mean ±SD n = 2–3
[9] = Human immunodeficiency virus 2, CEM-TK(-), thymidine kinase-deficient CEM/TK^− cells, mean ±SD n = 2–3; read-out: Antiviral activity CEM/TK^− HIV‐2 [ROD)] EC50
[10] = wild-type CEM/0 cells, mean ±SD n = 2–3
[11] = thymidine kinase-deficient CEM/TK^− cells, mean ±SD n = 2–3; read-out: Antiviral activity CEM/TK^− HIV‐2 [ROD)] EC50

Compound | half-life at 1.9 mM [1] [days] | half-life at 0.86 mM (in vitro [2]) [h] | half-life at 0.45 mM (pig liver esterase (PLE)) [h] | half-life at 0.86 mM (in vitro [3]; Plasma (Citrate) t 1/2) [h] | half-life at 0.86 mM (in vitro [3]; Plasma (Heparin) t 1/2) [h] | half-life at 0.86 mM (in vitro [3]; [5]) [h] | EC50 (HIV‐1 [HE]; [6]) [µM] | EC50 (HIV‐2 [ROD]; [8]) [µM] | EC50 (HIV‐2 [ROD)]; [9]) [µM] | CC50 (in vitro [4]) [µM] | EC50 (HIV‐1 [HE]; [10]) [µM] | EC50 (HIV‐2 [ROD]; [10]) [µM] | EC50 (HIV‐2 [ROD)]; [11]) [µM] | CC50 (CEM/0) [µM] | further results
CCCCCCCCCCCCCCCCCCOP(=O)(OCCCC)OP(=O)(O)OP(=O)(O)OC[C@@H]1C=C[C@H](n2cnc3c(NC4CC4)nc(N)nc32)C1 (stereo partly shown) [10hv, γ‐(C4;C18)‐ABCTP] | 10.5 | 3 | > 150 | > 20 | > 8 | > 8 | 0.024 ± 0.0014 | 0.046 ± 0.016 | 0.0048 ± 0.0021 | 39 ± 4.7 | – | – | – | – | fold improvement compared to cycloSal‐ABCMP, HIV-1 (HIV‐1 [HE]; wild-type CEM/0 cells): 30 fold; fold higher activity than the parent nucleoside, HIV-1 (HIV‐1 [HE]; [7]): ~400 fold; fold improvement compared to cycloSal‐ABCMP, HIV-2 (HIV‐2 [ROD]; wild-type CEM/0 cells): 16 fold; fold higher activity than the parent nucleoside, HIV-2 (HIV‐2 [ROD]; [7]): 80 fold; fold improved activity compared to the parent nucleoside, HIV-2 (HIV‐2 [ROD)]; CEM/TK^− cells, vs parent nucleoside): 410 fold; fold higher activity compared to the corresponding compound 20 (HIV‐2 [ROD)]; HIV-2, CEM/TK^− cells, vs 20h): 33 fold; improvement of antiviral activity in CEM/TK^− cells compared to wild-type CEM/0 cells (HIV‐2 [ROD)]; same compound, CEM/TK^− vs CEM/0): tenfold
Nc1nc(NC2CC2)c2ncn([C@H]3C=C[C@@H](COP(=O)(O)OP(=O)(O)OP(=O)(O)O)C3)c2n1 [ABCTP, reference compound] | – | – | – | – | – | – | – | – | – | – | 1.85 ± 2.14 | 1.02 ± 0.13 | 0.85 ± 0.4 | > 100 | –
CCCCCCCCCCCCCCCCCCOP(=O)(OCCCC)OP(=O)(O)OP(=O)(O)OC[C@H]1O[C@@H](n2cc(C)c(=O)[nH]c2=O)C[C@@H]1N=[N+]=[N-] (stereo partly shown) [10bv, γ‐(alkyl‐C4;alkyl‐C18)‐AZTTP] | > 83.3 | > 30 | > 150 | > 20 | > 20 | > 8 | 0.041 ± 0.019 | 0.026 ± 0.007 | 0.29 ± 0.15 | 64.9 | – | – | – | – | –
CCCCCCCCCCCCCCCCCCOP(=O)(O)OP(=O)(O)OP(=O)(O)OC[C@@H]1C=C[C@H](n2cnc3c(NC4CC4)nc(N)nc32)C1 [20h, γ‐C18‐ABCTP] | > 83.3 | > 10 | > 150 | > 20 | 4.8 | – | 0.26 ± 0.13 | 0.42 ± 0.11 | 0.16 ± 0.16 | > 100 | – | – | – | – | –
O=c1[nH]c(=O)n([C@H]2C[C@H](O)[C@@H](COP(=O)(O)OP(=O)(O)OP(=O)(O)O)O2)cc1/C=C/Br [BVDUTP, reference compound] | – | – | – | – | – | – | – | – | – | – | 4.73 ± 3.05 | 5.64 ± 4.45 | > 100 | > 100 | –
CCCCCCCCCCCCCCCCCCP(=O)(OCCCC)OP(=O)(O)OP(=O)(O)OC[C@@H]1C=C[C@H](n2cnc3c(NC4CC4)nc(N)nc32)C1 (stereo partly shown) [10hx] | > 41.7 | > 10 | > 150 | > 20 | > 20 | > 8 | – | – | – | 38.6 | – | – | – | – | EC50 (HIV‐1 [HE]; Human immunodeficiency virus 1, CCRF-CEM): 0.15 ± 0.14 µM; EC50 (HIV‐2 [ROD]; Human immunodeficiency virus 2, CCRF-CEM): 0.044 ± 0.033 µM; EC50 (HIV‐2 [ROD)]; Human immunodeficiency virus 2, CEM-TK(-), read-out: Antiviral activity CEM/TK^− HIV‐2 [ROD)] EC50): 0.0058 µM
CCCCCCCCCCCCCCCCCCP(=O)(OCc1ccc(OC(=O)CCCC)cc1)OP(=O)(O)OP(=O)(O)OC[C@@H]1C=C[C@H](n2cnc3c(NC4CC4)nc(N)nc32)C1 (stereo partly shown) [10hz, γ‐(AB‐C4)‐γ‐C‐(alkyl‐C18)‐ABCTP] | 22.2 | 7.7 | 1.11 | 5.6 | 4.1 | 4.1 to 5.6 | 0.2 | 0.17 ± 0.064 | 0.019 ± 0.001 | 38.2 ± 1.3 | – | – | – | – | –
Nc1nc(=O)n([C@@H]2CS[C@H](COP(=O)(O)OP(=O)(O)OP(=O)(O)O)O2)cc1F [FTCTP, reference compound] | – | – | – | – | – | – | – | – | – | – | 0.028 ± 0.015 | 0.043 ± 0.04 | 0.025 ± 0.027 | > 100 | –
CCCCCCCCCCCCCCCCCCP(=O)(OCc1ccc(OC(=O)CCCC)cc1)OP(=O)(O)OP(=O)(O)OC[C@H]1O[C@@H](n2cc(C)c(=O)[nH]c2=O)C[C@@H]1N=[N+]=[N-] (stereo partly shown) [10bz, γ‐(AB‐C4)‐γ‐C‐(alkyl‐C18)‐AZTTP] | 41 | 8 | 0.25 | 4.4 | 7.6 | 4.4 to 7.6 | 0.15 ± 0.15 | 0.0075 ± 0.0081 | 0.31 ± 0.026 | 58.9 | – | – | – | – | –
O=c1ccn([C@H]2C[C@H](F)[C@@H](COP(=O)(O)OP(=O)(O)OP(=O)(O)O)O2)c(=O)[nH]1 [FddUTP, reference compound] | – | – | – | – | – | – | – | – | – | – | 0.15 ± 0.13 | 0.26 ± 0.32 | 35.4 ± 43.9 | > 100 | –
CCCCCCCCCCCCCCCCCCOP(=O)(OCc1ccc(OC(=O)CCCC)cc1)OP(=O)(O)OP(=O)(O)OCC1OC(n2cc(C)c(=O)[nH]c2=O)CC1N=[N+]=[N-] (stereo not shown) [10by, γ‐(AB‐C4;alkyl‐C18)‐AZTTP] | 17.4 | 3.3 | 0.22 | 3.7 | 5.2 | – | 0.19 ± 0.12 | 0.0052 ± 0.0041 | 0.5 ± 0.35 | 60.1 | – | – | – | – | –
CCCCCCCCCCCCCCCCCCOP(=O)(O)OP(=O)(O)OP(=O)(O)OCC1OC(n2cc(C)c(=O)[nH]c2=O)CC1N=[N+]=[N-] (stereo not shown) [20b, γ‐(alkyl‐C18)‐AZTTP] | > 83.3 | > 30 | > 150 | > 20 | 3.7 | – | 0.028 ± 0.031 | 0.03 ± 0.001 | 4.1 ± 2.6 | > 100 | – | – | – | – | –
